Experimental data taken from publication PMC10745061 (Marine Drugs, 2023).
Where a SMILES comes first, the peptide text is derived from it. Bridges are numbered along the chain shown (N, C = ends).

Tests used:
E. coli MDR CI 1057 = conditions: 37 °C
Description: Resistance induction experiments were performed using the previously described method. Briefly, on day one, the overnight culture of wild-type bacteria was diluted with the 2× MH broth supplemented with 1.8% NaCl to reach a final cell concentration of 10^6 CFU/mL.

[1] = test system: human red blood cells (hRBCs); assay: Hemolysis, hemoglobin release assay; type: cell-based; conditions: hemoglobin release assay, 2 h incubation, two independent donors
Description: Figure 3 Biological activity of the peptides towards human cells. (A) Hemolytic effect on human red blood cells (hRBCs) after 2 h incubation (the hemoglobin release assay). (B) Cytotoxicity towards transformed human embryonic kidney cells (HEK293T) after 16 h incubation (the resazurin assay).
The hemolytic activity of the peptides was tested against the fresh suspension of human red blood cells (hRBC) using the hemoglobin release assay, as described previously. Two experiments were performed with hRBC from blood samples of independent donors. The quantitative data are represented as average means with standard deviations. The cytotoxic effect of the peptides was tested on transformed human embryonic kidney cells (HEK293T) using the resazurin assay. The technique is based on the ability of live cell dehydrogenases to reduce a blue resazurin to pink and fluorescent resorufin. A total of 10^4 cells per well in Dulbecco’s modified Eagle’s medium (DMEM/F12) supplemented with 10% FBS were placed into 96-well plates for 24 h in the CO2-incubator (5% CO2, 37 °C). […] Fluorescence of the formed resorufin was measured with the microplate reader AF2200 (Eppendorf, Germany) using the following channel: λExc = 535 nm, λEm = 595 nm. The fluorescence signal in the wells containing cells cultured without the peptides was assumed to represent 100% cell viability. […]

E. coli ATCC 25922 = conditions: BALB/c mice, n = 5, i.p. infection 10^6 CFU with 2.5% mucin; 10 mg/kg i.p. at 1 h and 4 h after infection; 7 days
RP-HPLC retention time = type: physicochemical; conditions: semi-preparative RP-HPLC, C18 column, linear gradient 5 to 80% (v/v) acetonitrile in water with 0.1% TFA within 50 min
Description: Figure 2 Structure analysis of the novel BRICHOS-related peptides HfBRI-25 and HfBRI-28. (A) Characteristics of the obtained peptides. ^1 Mean Kyte–Doolittle hydrophobicity index (GRAVY) was calculated using the Expasy ProtParam tool. The maximum and minimum values of this index are +4.5 and −4.5 for poly-Ile and poly-Arg sequences, respectively. ^2 Percentage of hydrophobic amino acids was calculated using the APD3 database. ^3 Retention times were measured using semi-preparative reversed-phase high-performance liquid chromatography (RP-HPLC) on a C18 column with a linear gradient from 5 to 80% (v/v) acetonitrile in water containing 0.1% trifluoroacetic acid (TFA) within 50 min. ^4 Molecular masses were calculated by considering the presence of four Cys residues forming two disulfide bonds in the case of HfBRI-25. ^5 Molecular masses were determined experimentally using MALDI-TOF mass spectrometry. (B) Spatial structures of HfBRI-25 and HfBRI-28 were modeled using the AlphaFold algorithm (ColabFold server). The top-rated models, according to predicted local distance difference test (pLDDT) scores, were visualized by the PyMOL software. (C) The CD-spectra of the peptides in water or in the presence of 30 mM DPC micelles. (D) The CONTINLL program was used for CD data analysis. […]

CC[C@H](C)[C@@H]1NC(=O)[C@H](Cc2c[nH]c3ccccc23)NC(=O)[C@H](C(C)C)NC(=O)[C@@H]2CSSC[C@H](NC(=O)[C@H](CCCNC(=N)N)NC(=O)[C@H](CCCNC(=N)N)NC(=O)[C@H](C(C)C)NC(=O)[C@H](CCCNC(=N)N)NC(=O)[C@H](CCCNC(=N)N)NC(=O)CNC(=O)[C@H](CC(N)=O)NC(=O)[C@H](C(C)C)NC(=O)[C@H](CO)NC1=O)C(=O)N[C@@H](Cc1c[nH]c3ccccc13)C(=O)NCC(=O)N[C@@H](CO)C(=O)NCC(=O)N[C@H](C(=O)O)CSSC[C@H](NC(=O)CNC(=O)[C@H](CCCNC(=N)N)NC(=O)[C@@H]1CCCN1C(=O)[C@@H](N)CO)C(=O)N[C@@H](Cc1ccccc1)C(=O)N2 [HfBRI-25] (H-SPRGCFCVWISVNGRRVRRCWGSGC-OH; disulfide 5-25, 7-20; N-terminus and C-terminus assumed)
Change of MIC value after resistance selection (E. coli MDR CI 1057; 21 passages (days) in the presence of the agent, MHB + 0.9% NaCl): two-fold
Initial MIC value before resistance selection (E. coli MDR CI 1057; Mueller–Hinton broth supplemented with 0.9% NaCl): 1 µM
Hemolytic effect on human red blood cells [1]: absence of hemolytic and cytotoxic properties
Survival / therapeutic efficacy (E. coli ATCC 25922): 100%
RP-HPLC Retention Time (RP-HPLC retention time): 27.5 min
